In patent publication US20140199714A1, “METHOD FOR DETECTING CANCER CELLS METASTASIZING INTO SENTINEL LYMPH NODE” (SHINSHU UNIVERSITY, priority 2008, published 2014):

Assays:
Assay type in all cases: cell-based
[1] = tested on: attachment of MDA-MB-231 carcinoma cells to human LECs; experiment: In vitro human LECs attachment assay (CCL2), MDA-MB-231; conditions: 18 hrs.-stimulation of 10 ng/mL CCL2 vs negative control with DMEM/F12; p<0.01
Protocol: The human LECs were plated to form a monolayer on type I collagen-coated 35 mm plates and incubated to confluence in 5% O2, 5% CO2, and 90% N2 at 37° C. The LECs were kept in serum-starved medium containing EBM-2 with 3% FBS. Selected plates were treated with 10 ng/mL CCL2 for 18 hrs. In some experiments, the plates were stimulated by the serum-starved medium pretreated with neutralization of 10 ng/mL CCL2 with 1.0 μg/mL CCL2 specific antibody.
In some experiments, the plates were also treated with anti-human ICAM-1 antibody (available from R&D systems, US) for 30 min. after the 18 hrs. treatment with 10 ng/mL CCL2.
The two kinds of the breast carcinoma cells such as MDA-MB-231 and MCF-7 stained with PKH26 fluorescent dye (available from SIGMA, US) were then plated at 1×10^5 cells per plate and incubated for 30 min. at 37° C. Unbound cells were removed by aspiration, and the plates were washed with EBM-2 three times. The attachment of the carcinoma cells was quantified by counting the number of cells under ×100 magnification using a Leica microscope.

[2] = tested on: ICAM-1 mRNA in human LECs; experiment: Quantitative RT-PCR of ICAM-1 mRNA in human LECs
Protocol: The 0 hr., 1 hr., 4 hrs. and 18 hrs. expressions of ICAM-1 mRNA were evaluated by quantitative reverse transcription polymerase chain reaction (RT-PCR) for ICAM-1 cDNA. The total RNA was extracted from the cultured human LECs using ISOGEN reagent (available from Nippon Gene Co., Ltd., Japan) according to the manufacturer's instructions. The concentration of each RNA was calculated using 260 nm absorbance with a spectrophotometer. The extracted RNA was reverse-transcribed with M-MLV reverse transcriptase (available from Ambion Inc., US). For RT-PCR analysis, each superscript first-strand synthesis kit (available from Invitrogen Corporation, US) was used with 1.0 μg of the total RNA. Forward and reverse primers of ICAM-1 and cyclophilin A were used for each specific probe, respectively as follows; ICAM-1 (available from TAKARA BIO INC., Japan), and cyclophilin A:
The cDNA was diluted 5-fold prior to PCR amplification. Quantitative RT-PCR was performed using a LIGHT CYCLER rapid thermal cycler system (available from Roche Diagnostics Limited, UK). Reactions were performed in a 20 μL volume with 0.5 μM primers, TAQ DNA POLYMERASE, and the buffer was included in the SYBR PREMIX EX TAQ (available from TAKARA BIO INC., Japan; SYBR is a registered trademark). The PCR protocol included 10 secs. of denaturation step followed by 45 cycles of 95° C. denaturation for 5 secs. and 60° C. annealing for 20 secs. The fluorescent product was detected at the end of the 72° C. extension period. Negative controls included PCR reactions with cDNA omitted. To confirm amplification specificity, PCR products from each primer pair were subjected to melting curve analysis. Quantification data was analyzed with LIGHT CYCLER analysis software. The results are presented as normalized ratio of the expression of ICAM-1 mRNA to cyclophilin A.

ICAM-1 on human LECs = experiment: Immunohistochemical expression of ICAM-1 on cultured human LECs

CCL2: chemokine CCL2
in vitro attachment of MDA-MB-231 to human LECs [1]: significant increase
expression of ICAM-1 mRNA (ratio to cyclophilin A) ([2]; 10 ng/mL CCL2, 1 hr. after the stimulation): significantly increased
expression of ICAM-1 mRNA (ratio to cyclophilin A) ([2]; 10 ng/mL CCL2, around 4 hrs. after the stimulation): maximal level
expression of ICAM-1 mRNA (ratio to cyclophilin A) ([2]; 10 ng/mL CCL2, up to 18 hrs. after the stimulation): increased slightly
intensity of the immunoreactivity for ICAM-1 (ICAM-1 on human LECs; 10 ng/mL CCL2, stimulation time of 18 hrs. only): significantly increased
contrast-density of ICAM-1 staining (mean density/pixel) (ICAM-1 on human LECs; 10 ng/mL CCL2 vs negative control, p<0.01, n=5): increases significantly
expression of ICAM-1 on human LECs (ICAM-1 on human LECs; 4 hrs-stimulation of 10 ng/mL CCL2): marked expression
expression of ICAM-1 on human LECs (ICAM-1 on human LECs; 18 hrs.-stimulation with 10 ng/mL chemokine): marked expression
expression of ICAM-1 on human LECs (ICAM-1 on human LECs; 18 hrs.-stimulation, 10 pg/mL CCL2): slight, but significant, expression
expression of ICAM-1 on human LECs (ICAM-1 on human LECs; 18 hrs.-stimulation, 1 ng/mL or 10 ng/mL of CCL2): marked expression
